Counter-ions that a name gives are not always drawn.
Tests used:
[1] = system: 9,11-azo PGH2 induced aggregation of rabbit platelet; test: Effect on 9,11-azo PGH2 induced aggregation of rabbit platelet in vitro; type: cell-based; conditions: Oryctolagus cuniculus; rabbit platelet rich plasma, in vitro, 9,11-azo PGH2 (final 1.0 μM), 37° C.; read-out: IC50 (Inhibition concentration of platelet aggregation by 50%)
From the text: (§1) In the following tests, the used 9, 11-azo PGH2 and 9,11-methanoepoxy PGH2 (U46619) are characterized pharmacologically as TXA2 mimetic agents and widely used for evaluating TXA2 antagonism of test compounds (for example, vide The Journal of Pharmacology and Experimental Therapeutics Vol. 234, pp 435-441).
Test 1 (Effect on 9,11-azo PGH2 induced aggregation of rabbit platelet in vitro) (a) Test method
In the in vitro experiments, the blood was collected from the carotid artery of rabbits into plastic vessels containing 0.1 volume of 3.8% aqueous sodium citrate. Platelet rich plasma (PRP) was prepared by centrifugation at 150 g for 15 minutes. Platelet aggregation was investigated using the turbidometric method with an aggregometer (NKK HEMATRACER 1). To the 225 μl of PRP, 25 μl of test compound solution was added, and then stirred at 1000 rpm for 2 minutes at 37° C. To the solution, 5 μl of 9,11-azo PGH2 (final 1.0 μM) was added as an aggregating inducer. IC50 (Inhibition concentration of platelet aggregation by 50%) were graphically determined.

[2] = system: 9,11-methanoepoxy PGH2 induced platelet aggregation; test: Effect on 9,11-methanoepoxy PGH2 (U46619) induced platelet aggregation ex vivo; type: in vivo, male Hartley strain guinea-pigs; conditions: Cavia porcellus, guinea-pig, oral administration 0.032 mg/kg, 1 hour before blood collection, U46619 0.5 μM
From the text: as §1
Test 2. (Effect on 9,11-methanoepoxy PGH2 induced platelet aggregation ex vivo)
In the ex vivo experiments, male Hartley strain guinea-pigs weighing about 300 g were used after overnight fasting. Animals received an oral administration of test compound (0.032 mg/kg) or vehicle 1 hour before the blood collection from abdominal artery PRP was prepared as described above, and platelet aggregation was induced by adding 5 μl of 9,11-methanoepoxy PGH2 (U46619, 0.5 μM) to 250 μl of PRP.

| IC50 [1] [nM] | Structure (SMILES) | inhibition at 0.032 mg/kg [2] [%] |
| --- | --- | --- |
| 85 | O=C(O)CCCC=C[C@@H]1C[C@@H](NS(=O)(=O)c2ccc(Cl)cc2)CN1S(=O)(=O)c1ccc(Cl)cc1 [Test compound (1), Sodium salt of (2S,4R)-2-[(E and Z)-5-carboxy-1-pentenyl]-1-(4-chlorophenylsulfonyl)-4-(4-chlorophenylsulfonylamino)pyrrolidine] | 94.2 |
| 55 | O=C(O)CCC/C=C\[C@@H]1C[C@@H](NS(=O)(=O)c2ccc(Cl)cc2)CN1S(=O)(=O)c1ccc(Cl)cc1 [Test compound (2), (2S,4R)-2-[(Z)-5-Carboxy-1-pentenyl]-1-(4-chlorophenylsulfonyl)-4-(4-chlorophenylsulfonylamino)pyrrolidine] | 100 |

Reference: patent US4916152A, “Pyrrolidine derivatives as antiasthmatics” (Fujisawa Pharmaceutical Co., Ltd., priority 1987, dated 1990)
